Reference: patent US20230346889A9, “TREATMENT OF ACUTE HEART FAILURE” (AnaCardio R&D AB, priority 2019, published 2023)
“Also recorded” adds a separate entry of the source.

Test system: patients with advanced CHF and reduced EF
Assay: Randomized double-blind placebo-controlled trial of intravenous acyl ghrelin: non-invasive hemodynamics (Innocor, Nexfin)
Format: in vivo
Source text: Between 17 Feb. 2013 and 19 May 2015 we conducted a prospective double-blind, placebo-controlled, parallel-group, single centre randomized clinical trial with a one-time treatment of intravenous acyl ghrelin or placebo.
Patients were pre-screened in the Karolinska University Hospital heart failure clinic (FIG. 1) and had symptoms and signs of advanced CHF (New York Heart Association [NYHA] class III-IV) and an EF of ≤40%.
Ghrelin is a 28 amino acid peptide with a molecular weight of 3,371 g/mol. Half-time in plasma is 24-30 minutes. Concentrations in normal humans has variably been reported at 100-300 pmol/L (300-900 ng/L) for total ghrelin. There is limited data on acyl ghrelin but we recently measured acyl ghrelin in 41 healthy non-obese adults: fasting: mean±SD: 118±14 ng/L, 5-95th percentile 27-328 ng/L; trough 60 minutes post 260 kcal mixed meal: 80±12 ng/L, 5-95th percentile 21-293 ng/L. Synthetic acylated (active) human ghrelin (brand name Clinalfa Ghrelin (human) Acetate, product number 4071265; Bachem, Hauptstrasse 144, 4416 Bubendorf, Switzerland—hereafter referred to as ghrelin, was purchased from Bachem (Bubendorf, Switzerland) under license from Daiichi Sankyo (Tokyo, Japan). For each patient and treatment, a stock solution was prepared consisting of multiple vials of powder ghrelin (100 μg ghrelin/vial together with phosphate buffer), each vial dissolved in 1 mL sterile water for infusion (B. Braun, Germany) and visually inspected to be a clear and colorless solution, prior to adding 0.001 g (0.02 ml of 50 g/L stock) human albumin (for concentration 0.001 g/mL=0.1%) to each vial and further mixed with normal saline (NaCl 9 mg/ml, B. Braun, Germany). The proportion of stock solution and saline were according to patient weight (Table 2), resulting in a total volume of 100 mL (to ensure the same volume infusion for all patients). The final intravenous infusion rate was 0.50 mL/min volume (total volume 60 mL), equivalent to 0.1 μg (30 pmol)/kg/min (total amount 12.0 μg/kg) of acyl ghrelin administered to all patients randomized to ghrelin. The infusion was given for 120 minutes and continued until all measurements at 120 minutes had been completed (thus delivering some additional ghrelin). The median total infusion duration was 171 minutes. Measurements were repeated 30 minutes after stopping infusion.
Patients were randomized in parallel by block randomization in groups of 4 using paper envelopes to ghrelin or placebo and the infusion was given by antecubital vein over 120 minutes. A dedicated study nurse prepared ghrelin and placebo for infusion and patients and all other investigators were blinded. Immediately prior to, during, and after the 120 minute infusion and also 30 minutes after stopping the infusion, blood samples were drawn and symptoms, signs, echocardiography, ECG, and non-invasive hemodynamics were assessed (FIG. 2). Patients were discharged to home and returned 2-5 days later for repeat measurements. Patients were followed prospectively for morbidity and mortality outcomes.
Non-invasive resting CO in was assessed in duplicate at each measurement using the Innocor® device (Innovision, Odense, Denmark). The Innocor is a non-invasive device that measures pulmonary blood flow using an inert gas rebreathing technique, and measures VO2 directly. It has been validated for CO and VO2 at rest and exercise (Gabrielsen et al., 2002; Stahlberg et al., 2009).
The Innocor® directly measures pulmonary blood flow, VO2 and SpO2. From these variables, shunt fraction, cardiac output, SVO2 and A-V O2 difference was then calculated using standard formulas. Beat-by-beat ECG, blood pressure and the first derivative of the pressure signal (+dP/dt) were measured using a Nexfin® device (described below). Fifteen minutes of continuous beat-by-beat Nexfin data were averaged at the time of Innocor measurements. Estimated systemic vascular resistance (eSVR) was subsequently calculated as mean blood pressure/cardiac output×80. […]

For `CCCCCCCC(=O)OC[C@H](NC(=O)[C@H](CO)NC(=O)CN)C(=O)N[C@@H](Cc1ccccc1)C(=O)N[C@@H](CC(C)C)C(=O)N[C@@H](CO)C(=O)N1CCC[C@H]1C(=O)N[C@@H](CCC(=O)O)C(=O)N[C@@H](Cc1cnc[nH]1)C(=O)N[C@@H](CCC(N)=O)C(=O)N[C@@H](CCCNC(=N)N)C(=O)N[C@H](C(=O)N[C@@H](CCC(N)=O)C(=O)N[C@@H](CCC(N)=O)C(=O)N[C@@H](CCCNC(=N)N)C(=O)N[C@@H](CCCCN)C(=O)N[C@@H](CCC(=O)O)C(=O)N[C@@H](CO)C(=O)N[C@@H](CCCCN)C(=O)N[C@@H](CCCCN)C(=O)N1CCC[C@H]1C(=O)N1CCC[C@H]1C(=O)N[C@@H](C)C(=O)N[C@@H](CCCCN)C(=O)N[C@@H](CC(C)C)C(=O)N[C@@H](CCC(N)=O)C(=O)N1CCC[C@H]1C(=O)N[C@@H](CCCNC(=N)N)C(=O)O)C(C)C` [Ghrelin], the “A-V O2-diff” value (2-5 day follow-up visit) was 27.4 ± 10.0 %, the CO (2-5 day follow-up visit) was 4.21 ± 1.27 L/min and the HR (2-5 day follow-up visit) was 71.6 ± 10.8 bpm. For the same compound, the PBF (2-5 day follow-up visit) was 3.58 ± 0.74 L/min, the SV (2-5 day follow-up visit) was 59.9 ± 18.5 mL and the Shunt (2-5 day follow-up visit) was 15.7 ± 16.7%. The SpO2 (2-5 day follow-up visit) was 94.0 ± 3.9+ %, the SvO2 (2-5 day follow-up visit) was 66.4 ± 18.4 % and the VO2 (2-5 day follow-up visit) was 0.22 ± 0.06 L/min. For the same compound, the “CO compared to placebo group” value (2-5 days follow-up) was “still a significant increase in CO”, the “A-V O2 diff” value (30 min after stop Infusion) was 21.6 ± 12.1% and the CO (30 min after stop Infusion) was 4.94 ± 1.70 L/min. For the same compound, the PBF (30 min after stop Infusion) was 4.14 ± 0.97 L/min, the SV (30 min after stop Infusion) was 74.31 ± 26.09 mL and the Shunt (30 min after stop Infusion) was 12.6 ± 14.3%. For the same compound, the SpO2 (30 min after stop Infusion) was 94.7 ± 3.9%, the SvO2 (30 min after stop Infusion) was 73.3 ± 12.8% and the VO2 (30 min after stop Infusion) was 0.19 ± 0.08 L/min. The dBP (30 min after stop Infusion) was 58.9 ± 7.5 mmHg, the dP/dt (30 min after stop Infusion) was 602 ± 252 mmHg/s and the mBP (30 min after stop Infusion) was 75.5 ± 12.0 mmHg. The sBP (30 min after stop Infusion) was 105.7 ± 20.5 mmHg, the “A-V O2 diff” value (Baseline) was 27.6 ± 14.3% and the CO (Baseline) was 4.08 ± 1.15 L/min. It also gave a PBF (Baseline) of 3.61 ± 0.70 L/min, an SV (Baseline) of 59.10 ± 17.82 mL and a Shunt (Baseline) of 9.9 ± 10.6%. For the same compound, the SpO2 (Baseline) was 95.2 ± 3.4%, the SvO2 (Baseline) was 67.9 ± 14.4% and the VO2 (Baseline) was 0.20 ± 0.07 L/min. The dBP (Baseline) was 58.6 ± 8.4 mmHg, the dP/dt (Baseline) was 742 ± 267 mmHg/s and the mBP (Baseline) was 74.9 ± 11.3 mmHg. The sBP (Baseline) was 104.7 ± 18.4 mmHg, the “A-V O2-diff” value (Baseline (Table 8)) was 24.4 ± 7.6% and the CO (Baseline (Table 8)) was 4.08 ± 1.15 L/min. It also gave an HR (Baseline (Table 8)) of 69.6 ± 9.1 bpm, a PBF (Baseline (Table 8)) of 3.61 ± 0.70 L/min and an SV (Baseline (Table 8)) of 59.9 ± 19.0 mL. For the same compound, the Shunt (Baseline (Table 8)) was 9.9 ± 10.6%, the SpO2 (Baseline (Table 8)) was 95.2 ± 3.4% and the SvO2 (Baseline (Table 8)) was 67.7 ± 14.3%. The VO2 (Baseline (Table 8)) was 0.2 ± 0.07 L/min, the “A-V O2 diff” value (Infusion + 60 min) was 23.6 ± 12.9 % and the CO (Infusion + 60 min) was 4.64 ± 1.31 L/min. For the same compound, the PBF (Infusion + 60 min) was 3.76 ± 0.76 L/min, the SV (Infusion + 60 min) was 69.64 ± 22.75 mL and the Shunt (Infusion + 60 min) was 16.8 ± 11.8 %. For the same compound, the SpO2 (Infusion + 60 min) was 93.5 ± 3.5 %, the SvO2 (Infusion + 60 min) was 70.0 ± 13.8% and the VO2 (Infusion + 60 min) was 0.19 ± 0.07 L/min. It also gave a dBP (Infusion + 60 min) of 56.5 ± 8.7 mmHg, a dP/dt (Infusion + 60 min) of 535 ± 213 mmHg/s and a mBP (Infusion + 60 min) of 71.4 ± 10.2 mmHg. The sBP (Infusion + 60 min) was 99.0 ± 17.6 mmHg, the “A-V O2 diff” value (Infusion + 120 min) was 20.9 ± 8.5 % and the CO (Infusion + 120 min) was 5.23 ± 1.98 L/min. The PBF (Infusion + 120 min) was 4.08 ± 0.90 L/min, the SV (Infusion + 120 min) was 79.83 ± 30.30 mL and the Shunt (Infusion + 120 min) was 18.0 ± 12.3 %. The SpO2 (Infusion + 120 min) was 93.4 ± 3.6 %, the SvO2 (Infusion + 120 min) was 71.7 ± 10.1% and the VO2 (Infusion + 120 min) was 0.19 ± 0.08 L/min. The dBP (Infusion + 120 min) was 56.1 ± 10.3 mmHg, the dP/dt (Infusion + 120 min) was 531 ± 191 mmHg/s and the mBP (Infusion + 120 min) was 70.9 ± 13.1 mmHg. The sBP (Infusion + 120 min) was 99.0 ± 21.1 mmHg, the “change in HR” value (between baseline and 120 minutes) was “fell slightly” and the “change in calculated SV” value (during and after infusion) was “increased with infusion and fell after stop of infusion”. For the same compound, the “change in systolic, diastolic and mean arterial blood pressure” value (during and after infusion) was “no changes or differences in changes; also recorded: no changes in blood pressure; also recorded: no effect”, the “change in CO” value (during and after infusion, primary outcome) was “increased with infusion and fell after stop of infusion” and the “change in oxygen consumption (VO2)” value (in vivo) was “no change”. For the same compound, the “change in pulmonary blood flow” value (in vivo) was “increased” and the “change in estimated SVR” value (with infusion) was “fell and decrease”.
